Columns and labels:
[1] = target: T1, Serine/threonine-protein kinase DCLK2 (Homo sapiens) (UniProt Q8N568); experiment: Selectivity interaction (KinomeScan (DiscoverX)) EUB0001049a DCLK2; details: at 1 µM
T1 sequence (whole entry): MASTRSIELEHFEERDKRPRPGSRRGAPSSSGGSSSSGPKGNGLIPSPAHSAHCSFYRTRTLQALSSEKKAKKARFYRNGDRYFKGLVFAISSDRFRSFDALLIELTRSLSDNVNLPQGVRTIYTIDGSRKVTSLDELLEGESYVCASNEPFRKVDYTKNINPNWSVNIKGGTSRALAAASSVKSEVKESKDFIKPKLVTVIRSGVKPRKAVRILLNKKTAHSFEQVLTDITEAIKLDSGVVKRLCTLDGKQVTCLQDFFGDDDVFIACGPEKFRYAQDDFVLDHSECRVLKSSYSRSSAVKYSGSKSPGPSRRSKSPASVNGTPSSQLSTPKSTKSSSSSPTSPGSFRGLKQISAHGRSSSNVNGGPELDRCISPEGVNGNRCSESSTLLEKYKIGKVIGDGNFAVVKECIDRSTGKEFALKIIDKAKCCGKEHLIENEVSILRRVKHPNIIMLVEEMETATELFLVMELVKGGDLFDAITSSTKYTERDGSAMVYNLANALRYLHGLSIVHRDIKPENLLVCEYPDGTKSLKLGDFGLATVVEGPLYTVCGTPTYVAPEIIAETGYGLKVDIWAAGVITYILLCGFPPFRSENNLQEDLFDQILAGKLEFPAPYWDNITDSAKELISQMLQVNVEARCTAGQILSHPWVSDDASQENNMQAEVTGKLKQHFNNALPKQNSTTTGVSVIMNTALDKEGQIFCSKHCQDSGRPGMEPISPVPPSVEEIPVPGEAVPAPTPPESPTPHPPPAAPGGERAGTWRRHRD

[2] = target: T2, Serine/threonine-protein kinase greatwall (Homo sapiens) (UniProt Q96GX5); experiment: Selectivity interaction (ActivX KiNativ screen (kinase selectivity in THP-1 cell lysates)) EUB0000639a MASTL; format: subcellular; details: lysate, at 0.01 µM
T2 sequence (whole entry): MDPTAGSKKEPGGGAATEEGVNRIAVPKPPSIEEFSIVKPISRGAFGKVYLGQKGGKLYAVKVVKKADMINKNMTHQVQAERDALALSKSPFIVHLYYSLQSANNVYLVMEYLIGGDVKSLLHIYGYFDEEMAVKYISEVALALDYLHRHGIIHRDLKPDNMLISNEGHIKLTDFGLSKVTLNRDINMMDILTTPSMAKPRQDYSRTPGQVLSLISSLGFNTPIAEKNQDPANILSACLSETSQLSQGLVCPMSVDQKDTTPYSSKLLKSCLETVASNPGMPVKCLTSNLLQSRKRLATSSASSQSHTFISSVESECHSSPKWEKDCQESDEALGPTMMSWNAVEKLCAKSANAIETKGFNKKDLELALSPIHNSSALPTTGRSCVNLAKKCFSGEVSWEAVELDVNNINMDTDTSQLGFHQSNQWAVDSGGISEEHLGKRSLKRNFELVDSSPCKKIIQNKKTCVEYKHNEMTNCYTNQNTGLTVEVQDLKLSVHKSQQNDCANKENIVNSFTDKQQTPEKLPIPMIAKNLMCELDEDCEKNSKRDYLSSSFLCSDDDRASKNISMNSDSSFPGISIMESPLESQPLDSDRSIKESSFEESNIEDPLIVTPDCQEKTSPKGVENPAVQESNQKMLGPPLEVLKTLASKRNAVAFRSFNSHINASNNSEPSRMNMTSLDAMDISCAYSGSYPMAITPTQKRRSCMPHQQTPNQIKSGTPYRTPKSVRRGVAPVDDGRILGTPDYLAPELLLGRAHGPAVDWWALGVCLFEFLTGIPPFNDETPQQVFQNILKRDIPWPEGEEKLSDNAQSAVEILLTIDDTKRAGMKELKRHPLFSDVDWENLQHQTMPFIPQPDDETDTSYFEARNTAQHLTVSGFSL

[3] = target: T3, Serine/threonine-protein kinase ULK3 (Homo sapiens) (UniProt Q6PHR2); experiment: Selectivity interaction (KinomeScan (DiscoverX)) EUB0000618a ULK3; details: at 10 µM
T3 sequence (whole entry): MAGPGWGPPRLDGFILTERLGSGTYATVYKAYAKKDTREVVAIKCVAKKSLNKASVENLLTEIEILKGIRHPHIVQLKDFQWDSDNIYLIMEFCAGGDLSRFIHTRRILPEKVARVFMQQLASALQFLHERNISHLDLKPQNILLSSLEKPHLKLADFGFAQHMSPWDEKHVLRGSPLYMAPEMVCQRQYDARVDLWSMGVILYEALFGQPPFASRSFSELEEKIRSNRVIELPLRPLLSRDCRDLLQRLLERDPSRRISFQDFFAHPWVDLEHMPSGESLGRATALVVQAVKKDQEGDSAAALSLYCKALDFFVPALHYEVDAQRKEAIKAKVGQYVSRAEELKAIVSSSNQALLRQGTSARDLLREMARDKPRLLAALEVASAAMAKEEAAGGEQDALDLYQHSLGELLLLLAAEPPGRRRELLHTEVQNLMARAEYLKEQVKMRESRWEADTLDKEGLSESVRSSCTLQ

[4] = target: T4, 3-phosphoinositide-dependent protein kinase 1 (Homo sapiens) (UniProt O15530); experiment: Selectivity interaction (KinomeScan (DiscoverX)) EUB0000607a PDPK1; details: at 10 µM
T4 sequence (whole entry): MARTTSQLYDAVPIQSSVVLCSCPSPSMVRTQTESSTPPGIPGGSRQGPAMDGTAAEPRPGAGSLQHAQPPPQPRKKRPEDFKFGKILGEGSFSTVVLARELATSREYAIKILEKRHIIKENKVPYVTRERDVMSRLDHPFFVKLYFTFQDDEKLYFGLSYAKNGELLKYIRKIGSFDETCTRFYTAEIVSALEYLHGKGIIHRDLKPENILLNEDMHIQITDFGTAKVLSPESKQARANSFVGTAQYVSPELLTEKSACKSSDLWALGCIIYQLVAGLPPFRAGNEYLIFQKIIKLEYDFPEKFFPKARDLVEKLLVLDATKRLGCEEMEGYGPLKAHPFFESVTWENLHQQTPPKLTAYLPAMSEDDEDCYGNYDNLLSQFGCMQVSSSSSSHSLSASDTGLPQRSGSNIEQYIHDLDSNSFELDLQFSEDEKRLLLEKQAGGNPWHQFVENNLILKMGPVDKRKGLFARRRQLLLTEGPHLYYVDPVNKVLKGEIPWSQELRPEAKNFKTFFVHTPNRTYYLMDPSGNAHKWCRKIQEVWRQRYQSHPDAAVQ

COc1cc(Nc2nc(C)cc(-c3cnn4nc(OC)ccc34)n2)cc(C(F)(F)F)c1
% of control [1]: 84%

CC[C@@H]1[C@H](F)C(=O)N[C@@H]1COc1nccc2cc(C(N)=O)c(OC)cc12 [ZIMLOVISERTIB]
% of inhibition [2]: 16.1%

O[C@H]1CC[C@H](Nc2ncc3nc(Nc4c(F)cc(F)cc4F)n([C@H]4CCOC4)c3n2)CC1
% of control [3]: 94%

CNC(=O)Nc1ccc(-c2nc(N3CC4CCC(C3)O4)c3cnn(C4CCC5(CC4)OCCO5)c3n2)cc1
% of control [4]: 76%

Reference: ChEMBL document CHEMBL5465560, “Selectivity Literature for EUbOPEN Chemogenomic Library” (2024)
